Source: patent US10159659B2, “Predicting response to cancer therapy” (BIONOMICS LIMITED, priority 2014, dated 2018)

Experiments:
[1] = test system: Metastatic Clear Cell Renal Cell Carcinoma; experiment: Disruptor-1 trial: BNC105P in combination with everolimus, progression free survival; assay type: in vivo, human; conditions: all patients; 10 mg oral everolimus daily, with or without 16 mg/m^2 BNC105P i.v. on days 1 and 8 of 21 day cycle; FIG. 2
Description: A control group of patients received everolimus alone.
The medical histories of patients were obtained prior to commencement of the study.
All patients in the study were followed for disease progression and survival. Prior to commencing treatment, patients enrolled in the study were subject to disease assessment including: CT of chest, abdomen and pelvis; CT of the head or brain MRI; bone scan; echocardiography (ECHO) or multiple gated acquisition scan (MUGA). At every 3 cycles of treatment, CT scans of chest, abdomen and pelvis, and bone scans were performed to determine disease progression.
Time to disease progression was determined as a measurement from the start of the treatment until the criteria for disease progression is met (or death occurs), taking as reference the smallest measurements recorded since the treatment started. […]

[2] = test system: tumour endothelial cells (activated) and normal endothelial cells (quiescent); experiment: Potency against activated versus quiescent endothelial cells; assay type: cell-based
tubulin = experiment: Tubulin polymerisation inhibition; assay type: biochemical
[3] = Maximum tolerated dose of BNC105P by intravenous infusion in patients; assay type: in vivo, human; conditions: intravenous infusion over 10 minutes, days 1 and 8 of 21 day cycle, with 10 mg oral everolimus daily
Description: Patients in the BNC105P in combination with everolimus study group (the “combination arm”) were administered 10 mg oral everolimus daily. On days 1 and 8 of the 21 day cycle period, the patients were administered 16 mg/m^2 BNC105P, which had been determined to be the maximum tolerated dose, by intravenous infusion over a 10 minute period (FIG. 1). Treatment was continued until disease progressed, intolerable toxicity became apparent, or until consent was withdrawn. A control group of patients were administered with everolimus alone.

For `CO[C@H]1C[C@@H]2CC[C@@H](C)[C@@](O)(O2)C(=O)C(=O)N2CCCC[C@H]2C(=O)O[C@H]([C@H](C)C[C@@H]2CC[C@@H](OCCO)[C@H](OC)C2)CC(=O)[C@H](C)/C=C(\C)[C@@H](O)[C@@H](OC)C(=O)[C@H](C)C[C@H](C)/C=C/C=C/C=C/1C` [everolimus], the “patients free of disease progression at 6 months” value [1] was 20 patients.
With `COc1ccc(/C=C\c2cc(OC)c(OC)c(OC)c2)cc1O` [Combretastatin A4, reference compound] the “selectivity between activated (tumour) and quiescent (normal) endothelial cells (in words)” value [2] was “equally potent against quiescent and activated endothelial cells”.
For `COc1cc(C(=O)c2c(C)oc3c(O)c(OC)ccc23)cc(OC)c1OC` [formula III, 2-methyl-7-hydroxy-3-(3,4,5-trimethoxybenzoyl)-6-methoxybenzofuran], the “selectivity between activated (tumour) and quiescent (normal) endothelial cells (in words)” value [2] was “show selectivity towards tumor endothelial cells (activated) over normal endothelial cells (quiescent)” and the “tubulin polymerisation inhibition (in words)” value (tubulin) was “potent tubulin polymerisation inhibitors”.
Work on `COc1cc(C(=O)c2c(C)oc3c(OP(=O)([O-])[O-])c(OC)ccc23)cc(OC)c1OC.[Na+].[Na+]` [BNC105P, disodium [6-methoxy-2-methyl-3-(3,4,5-trimethoxybenzoyl)-1-benzofuran-7-yl] phosphate] yielded a maximum tolerated dose [3] of 16 mg/m^2.
